In article PMC5219024, “New acetylenic derivatives of betulin and betulone, synthesis and cytotoxic activity” (Medicinal Chemistry Research, 2016):
Values after ≈ are worked out from the molar mass of the structure shown. Read-outs that look alike come from different tables or passages of the source.

Columns and labels:
[1] = tested on: SW707 (human colorectal); parameters: method as in Boryczka et al. ([2013a], [b]); conditions: Neg = negative in the concentration used, ref Boryczka et al. ([2013a], [b]); cited from earlier work
[2] = tested on: CCRF/CEM (human leukemia); parameters: method as in Boryczka et al. ([2013a], [b]); conditions: Neg = negative in the concentration used, ref Boryczka et al. ([2013a], [b]); cited from earlier work
[3] = tested on: HL-60 (human promyelocytic leukemia); experiment: Antiproliferative assay in vitro (MTT), HL-60; format: cell-based; conditions: for IC50: Homo sapiens, HL-60 cancer cell line, 96 h exposure, read-out: Cytotoxic activity IC50, HL-60
Description: (§1) The tested cell lines were obtained from the American Type Culture Collection (Rockville, Maryland, USA) and maintained at the Cell Culture Collection of the Institute of Immunology and Experimental Therapy (Wrocław, Poland). The cells were seeded in 96-well plates (Sarstedt, USA) at a density of 10^4 cells per well in 100 µL of culture medium overnight. […] The normal mouse fibroblasts BALB3T3 was cultured in Dulbecco’s modified Eagle’s medium (Sigma-Aldrich, Chemie GmbH, Steinheim, Germany) supplemented with 2 mM glutamine (Sigma-Aldrich, Chemie GmbH, Steinheim, Germany) and 10 % fetal calf serum FBS (Sigma-Aldrich, Chemie GmbH, Steinheim, Germany). The all culture media were supplemented with streptomycin (100 µg/mL) and penicillin (100 U/mL) (both antibiotics from Polfa, Tarchomin, Poland). The cell cultures were maintained at 37 °C in humid atmosphere saturated with 5 % CO2. The MTT assay was used for the cytotoxicity screening against leukemia cells growing in suspension culture. This assay was performed after 96 h of the leukemia cells to varying concentrations (ranging from 1 to 100 µg/mL) of the tested substances. The derivatives of betulin were dissolved in 10 % DMSO to concentration of 1 mg/mL, and next diluted in culture medium to reach the required concentrations. […] During the last 3–4 h of incubation 20 µl of MTT solution were added to each well (MTT: 3-(4,5-dimethylthiazol-2-yl)-2,5-diphenyl tetrazolium bromide; stock solution: 5 mg/mL). The pale yellow MTT is reduced to a navy blue formazan in the mitochondria of living cells. At the end of incubation time, 80 µL of the lysing mixture was added to each well (lysing mixture: 225 mL dimethylformamide, 67.5 g sodium dodecyl sulfate and 275 mL of distilled water). After 24 h are formed the crystals of formazan, which are insoluble in aqueous solutions. The formazan crystals had been dissolved. The optical densities were read on a Multiskan RC photometer at 570 nm wavelength. The compounds in given concentration were examined in triplicates in each experiment which was repeated 3–5 times. The results of cytotoxic activity in vitro were expressed as an IC50 in µg/mL.

[4] = tested on: T47D (human breast cancer); parameters: method as in Boryczka et al. ([2013a], [b]); conditions: Neg = negative in the concentration used, ref Boryczka et al. ([2013a], [b]); cited from earlier work
[5] = tested on: BALB3T3 normal mouse fibroblasts; parameters: method as in Boryczka et al. ([2013a], [b]); conditions: murine BALB3T3 normal fibroblasts; Neg = negative in the concentration used; ref Boryczka et al. ([2013a], [b]); cited from earlier work
[6] = tested on: P388 (mouse leukemia); parameters: method as in Boryczka et al. ([2013a], [b]); conditions: murine P388; Neg = negative in the concentration used; ref Boryczka et al. ([2013a], [b]); cited from earlier work
[7] = tested on: P388 (mouse leukemia); experiment: Antiproliferative assay in vitro (MTT), P388; format: cell-based; conditions: murine P388, 96 h exposure, 1 to 100 µg/mL, Neg = negative in the concentration used; for IC50: Mus musculus, read-out: Cytotoxic activity IC50, P388
Description: as §1

[8] = tested on: CCRF/CEM (human leukemia); experiment: Antiproliferative assay in vitro (MTT), CCRF/CEM; format: cell-based; conditions: human CCRF/CEM, 96 h exposure, 1 to 100 µg/mL, Neg = negative in the concentration used; for IC50: read-out: Cytotoxic activity IC50, CCRF/CEM
Description: as §1

[9] = tested on: T47D (human breast cancer); experiment: Antiproliferative assay in vitro (SRB), T47D; format: cell-based; conditions: human T47D, 96 h exposure, 1 to 100 µg/mL, Neg = negative in the concentration used; for IC50: read-out: Cytotoxic activity IC50, T47D
Description: (§2) The tested cell lines were obtained from the American Type Culture Collection (Rockville, Maryland, USA) and maintained at the Cell Culture Collection of the Institute of Immunology and Experimental Therapy (Wrocław, Poland). The cells were seeded in 96-well plates (Sarstedt, USA) at a density of 10^4 cells per well in 100 µL of culture medium overnight. […] The normal mouse fibroblasts BALB3T3 was cultured in Dulbecco’s modified Eagle’s medium (Sigma-Aldrich, Chemie GmbH, Steinheim, Germany) supplemented with 2 mM glutamine (Sigma-Aldrich, Chemie GmbH, Steinheim, Germany) and 10 % fetal calf serum FBS (Sigma-Aldrich, Chemie GmbH, Steinheim, Germany). The all culture media were supplemented with streptomycin (100 µg/mL) and penicillin (100 U/mL) (both antibiotics from Polfa, Tarchomin, Poland). The cell cultures were maintained at 37 °C in humid atmosphere saturated with 5 % CO2. This technique as first was described by Skehan et al. in [1990]. The SRB assay was performed after 96 h exposure of the cultured cells to varying concentrations (ranging from 1 to 100 µg/mL) of the tested substances. The reported derivatives as well as betulin 1 were dissolved in 10 % dimethyl sulfoxide (DMSO) to concentration of 1 mg/mL, and next diluted in culture medium to reach the required concentrations. […] The cells fastened to the plastic were fixed mildly layering cold 50 % TCA (trichloroacetic acid, Aldrich-Chemie, Germany) on the top of the culture medium in each well. The plates were incubated at 4 °C for 1 h and then washed five times with tap water. The cells fixed with TCA were stained with 0.4 % sulforhodamine B (SRB, Sigma, Germany) dissolved in 1 % acetic acid (POCH, Gliwice, Poland) for 30 min. The unbound dye was removed by rinsing four times with 1 % acetic acid. The protein-bound dye was extracted with 10 mM unbuffered tris base (POCH, Gliwice, Poland) and then determined the optical density at 540 nm in a computer-interfaced, 96-well microtiter plate reader Multiscan RC photometer (Labsystems, Helsinki, Finland). The compounds in given concentration were examined in triplicates in each experiment which was repeated 3–5 times. The results of cytotoxic activity in vitro were expressed as an IC50 in µg/mL.

[10] = tested on: BALB3T3 normal mouse fibroblasts; experiment: Antiproliferative assay in vitro (SRB), BALB3T3; format: cell-based; conditions: murine BALB3T3 normal fibroblasts; 96 h exposure; 1 to 100 µg/mL; Neg = negative in the concentration used
Description: as §2

[11] = tested on: SW707 (human colorectal); experiment: Antiproliferative assay in vitro (SRB), SW707; format: cell-based; conditions: human SW707, 96 h exposure, 1 to 100 µg/mL, Neg = negative in the concentration used
Description: as §2

[12] = Antiproliferative assay in vitro (SRB), BALB3T3; format: cell-based, mouse; conditions: mouse; murine BALB3T3 normal fibroblasts; 96 h exposure; 1 to 100 µg/mL; Neg = negative in the concentration used; read-out: Cytotoxic activity IC50, BALB3T3
Description: as §2

SMILES	Cytotoxic activity IC50, SW707 [1]	Cytotoxic activity IC50, CCRF/CEM [2]	IC50 [3]	fold potent than betulin 1 against HL-60 ([3]; relative to betulin 1, HL-60)	Cytotoxic activity IC50, T47D [4]	Cytotoxic activity IC50, BALB3T3 [5]	Cytotoxic activity IC50, P388 [6]	IC50 [7]	IC50 [8]	melting point	IC50 [9]	Cytotoxic activity IC50, BALB3T3 [10]	Cytotoxic activity IC50, SW707 [11]	IC50 at 96 h [12]	IC50 ([11]; read-out: Cytotoxic activity IC50, SW707)	Cytotoxic activity IC50, P388 [7]	Cytotoxic activity IC50, CCRF/CEM [8]	Cytotoxic activity IC50, T47D [9]
C#CC(=O)OC[C@]12CC[C@@H](C(=C)C)C1C1CCC3[C@@]4(C)CC[C@H](O)C(C)(C)C4CC[C@@]3(C)[C@]1(C)CC2 (some centres unmarked) [Compound 5, 28-O-propynoylbetulin]	14.9 ± 3.3 µg/mL	0.02 ± 0.001 µg/mL	0.3 ± 0.004 µg/mL (≈ 0.606 µM)	24 fold	9.1 ± 1.9 µg/mL	0.3 ± 0.05 µg/mL	0.4 ± 0.1 µg/mL	–	–	–	–	–	–	–	–	–	–	–
C#CCOC(=O)OC[C@]12CC[C@@H](C(=C)C)C1C1CCC3[C@@]4(C)CCC(=O)C(C)(C)C4CC[C@@]3(C)[C@]1(C)CC2 (some centres unmarked) [Compound 24, 28-O-Propargyloxycarbonylbetulone]	–	–	11.6 ± 4.9 µg/mL (≈ 22.2 µM)	–	–	–	–	30.3 ± 11.8 µg/mL (≈ 58 µM)	18.7 ± 6.6 µg/mL (≈ 35.8 µM)	173 to 175 °C	23.3 ± 3.5 µg/mL (≈ 44.6 µM)	Neg	Neg	–	–	–	–	–
C=C(C)[C@@H]1CC[C@]2(COC(=O)C=CC)CC[C@]3(C)C(CCC4[C@@]5(C)CC[C@H](O)C(C)(C)C5CC[C@]43C)C12 (some centres unmarked) [Compound 8, 28-O-(2-Butenoyl)betulin]	–	–	–	–	–	–	–	5.1 ± 4.9 µg/mL (≈ 9.98 µM)	28 ± 21.6 µg/mL (≈ 54.8 µM)	182 to 184 °C	29.9 ± 9.3 µg/mL (≈ 58.5 µM)	–	–	25.6 ± 1.8 µg/mL (≈ 50.1 µM)	32 ± 4.2 µg/mL (≈ 62.6 µM)	–	–	–
C=C(C)[C@@H]1CC[C@]2(COC(=O)C#Cc3ccccc3)CC[C@]3(C)C(CCC4[C@@]5(C)CCC(=O)C(C)(C)C5CC[C@]43C)C12 (some centres unmarked) [Compound 19, 28-O-Phenylpropynoylbetulone]	–	–	–	–	–	–	–	–	–	82 to 85 °C	–	Neg	Neg	–	–	Neg	Neg	Neg
C#CCCOC(=O)OC[C@]12CC[C@@H](C(=C)C)C1C1CCC3[C@@]4(C)CCC(=O)C(C)(C)C4CC[C@@]3(C)[C@]1(C)CC2 (some centres unmarked) [Compound 25, 28-O-(3-Butynyloxycarbonyl)betulone]	–	–	–	–	–	–	–	3.8 ± 1.9 µg/mL (≈ 7.08 µM)	25.2 ± 4.6 µg/mL (≈ 46.9 µM)	81 to 84 °C	29.8 ± 10.7 µg/mL (≈ 55.5 µM)	Neg	Neg	–	–	–	–	–
C=C(C)[C@@H]1CC[C@]2(COC(=O)OCC#CC)CC[C@]3(C)C(CCC4[C@@]5(C)CCC(=O)C(C)(C)C5CC[C@]43C)C12 (some centres unmarked) [Compound 26, 28-O-(2-Butynyloxycarbonyl)betulone]	–	–	–	–	–	–	–	18.3 ± 12.9 µg/mL (≈ 34.1 µM)	47.6 ± 5.7 µg/mL (≈ 88.7 µM)	150 to 152 °C	79.2 ± 5.2 µg/mL (≈ 148 µM)	Neg	Neg	–	–	–	–	–
